Test results taken from patent publication US10597388B2, “Pyridazinone herbicides” (FMC CORPORATION, priority 2014, dated 2020).

Tested on: waterhemp_RES2 (ALS & HPPD resistant common waterhemp, Amaranthus rudis)
Assay: Test E greenhouse herbicide test, postemergence
Type: in vivo
Outline: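 Values are visual ratings from 0 (no effect) to 100 (complete control), scored relative to untreated controls 14 to 21 d after treatment. Plants were 1- to 4-leaf seedlings (2 to 18 cm) in potting medium and received postemergence applications of formulated test chemicals.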

CC(=O)Oc1c(C)nn(C)c(=O)c1-c1c(C)cc(C)c2ccccc12 [Compound 99]
Plant response rating, Waterhemp_RES2 (16 g ai/ha, visual, scale 0 no effect to 100 complete control): 50
Plant response rating, Waterhemp_RES2 (31 g ai/ha, visual, scale 0 no effect to 100 complete control): 50
Plant response rating, Waterhemp_RES2 (125 g ai/ha, scale 0 to 100 (0 no effect, 100 complete control)): 60
